According to BindingDB's records for doi:10.1021/jm00148a009 (1985):
pIC50: −log10 of the molar value.

Target: Prostacyclin synthase (Sus scrofa)
Test: Inhibition of porcine aorta prostacyclin PGI-2 synthase by bioassay method

Row | pIC50 | Structure (SMILES)
1 | < 4.00 | O=C(O)Cc1ccccc1OCCn1ccnc1 [[2-(2-Imidazol-1-yl-ethoxy)-phenyl]-acetic acid]
2 | < 4.00 | CC(=O)Nc1ccc(OCCn2ccnc2)cc1 [N-[4-(2-Imidazol-1-yl-ethoxy)-phenyl]-acetamide]
3 | < 4.00 | c1cn(CCOc2ccc(-c3nnn[nH]3)cc2)cn1 [5-[4-(2-Imidazol-1-yl-ethoxy)-phenyl]-1H-tetrazole]
